According to patent publication US4868321A, “Isothiocyanate intermediates” (FMC Corporation, priority 1988, dated 1989):

What was measured:
Type in all cases: in vivo
Green Foxtail [1] = test: Preemergence Herbicidal Activity, Green Foxtail; settings: Setaria viridis, pre-emergence
Description: (§1) The herbicidal data in the following Tables 3 and 4 was obtained in the manner described in PCT published application no. […] In those tables, the test compounds are identified by numbers which correspond to those in Table 1, "kg/ha" is kilograms per hectare, and "% C" is percent control.

Green Foxtail [2] = test: Postemergence Herbicidal Activity, Green Foxtail; settings: Setaria viridis, post-emergence
Description: as §1

Wheat [3] = test: Postemergence Herbicidal Activity, Wheat; settings: Triticum aestivum, post-emergence
Description: as §1

Velvetleaf [4] = test: Preemergence Herbicidal Activity, Velvetleaf; settings: Abutilon theophrasti, pre-emergence
Description: (§2) The herbicidal data in the following Tables 3 and 4 was obtained in the manner described in PCT published application no. WO 85/01939, previously mentioned, usually employing solutions of the herbicidal compound in 50/50 acetone/water mixtures. In those tables, the test compounds are identified by numbers which correspond to those in Table 1, "kg/ha" is kilograms per hectare, and "% C" is percent control.

Barnyardgrass [5] = test: Preemergence Herbicidal Activity, Barnyardgrass; settings: Echinochloa crus-galli, pre-emergence
Description: as §1

Field Corn [6] = test: Preemergence Herbicidal Activity, Field Corn; settings: Zea mays, pre-emergence
Description: as §1

Morningglory [7] = test: Preemergence Herbicidal Activity, Morningglory; settings: Ipomoea, pre-emergence
Description: as §2

Morningglory [8] = test: Postemergence Herbicidal Activity, Morningglory; settings: Ipomoea, post-emergence
Description: as §2

Velvetleaf [9] = test: Postemergence Herbicidal Activity, Velvetleaf; settings: Abutilon theophrasti, post-emergence
Description: as §2

Johnsongrass [10] = test: Postemergence Herbicidal Activity, Johnsongrass; settings: Sorghum halepense, post-emergence
Description: as §1

Barnyardgrass [11] = test: Postemergence Herbicidal Activity, Barnyardgrass; settings: Echinochloa crus-galli, post-emergence
Description: as §1

Cotton [12] = test: Preemergence Herbicidal Activity, Cotton; settings: Gossypium hirsutum, pre-emergence
Description: as §2

Cotton [13] = test: Postemergence Herbicidal Activity, Cotton; settings: Gossypium hirsutum, post-emergence
Description: as §2

Soybean [14] = test: Postemergence Herbicidal Activity, Soybean; settings: Glycine max, post-emergence
Description: as §1

Johnsongrass [15] = test: Preemergence Herbicidal Activity, Johnsongrass; settings: Sorghum halepense, pre-emergence
Description: as §1

Soybean [16] = test: Preemergence Herbicidal Activity, Soybean; settings: Glycine max, pre-emergence
Description: as §1

Wheat [17] = test: Preemergence Herbicidal Activity, Wheat; settings: Triticum aestivum, pre-emergence
Description: as §1

Field Corn [18] = test: Postemergence Herbicidal Activity, Field Corn; settings: Zea mays, post-emergence
Description: as §1

Field Bindweed [19] = test: Preemergence Herbicidal Activity, Field Bindweed; settings: pre-emergence, 8.0 kg/ha
Description: as §2

Field Bindweed [20] = test: Postemergence Herbicidal Activity, Field Bindweed; settings: post-emergence, 8.0 kg/ha
Description: as §2

Rice = test: Preemergence Herbicidal Activity, Rice; settings: Oryza sativa, pre-emergence, 0.5 kg/ha
Description: as §1

Work on `CS(=O)(=O)N(c1cc(-n2nnn(CCCF)c2=O)c(F)cc1Cl)S(C)(=O)=O` [Compound 9] yielded a pest or weed control at 1000 g/ha (Green Foxtail [1]; 1.0 kg/ha) of 100%, a pest or weed control at 1000 g/ha (Green Foxtail [2]; 1.0 kg/ha) of 60% and a plant injury at 1000 g/ha (Wheat [3]; 1.0 kg/ha) of 80%. It also gave a pest or weed control at 1000 g/ha (Velvetleaf [4]; 1.0 kg/ha) of 100%, a pest or weed control at 1000 g/ha (Barnyardgrass [5]; 1.0 kg/ha) of 100% and a plant injury at 1000 g/ha (Field Corn [6]; 1.0 kg/ha) of 100%. For the same compound, the pest or weed control at 1000 g/ha (Morningglory [7]; 1.0 kg/ha) was 100%, the pest or weed control at 1000 g/ha (Morningglory [8]; 1.0 kg/ha) was 100% and the pest or weed control at 1000 g/ha (Velvetleaf [9]; 1.0 kg/ha) was 100%. It also gave a pest or weed control at 1000 g/ha (Johnsongrass [10]; 1.0 kg/ha) of 70%, a pest or weed control at 1000 g/ha (Barnyardgrass [11]; 1.0 kg/ha) of 100% and a plant injury at 1000 g/ha (Cotton [12]; 1.0 kg/ha) of 100%. For the same compound, the plant injury at 1000 g/ha (Cotton [13]; 1.0 kg/ha) was 100%, the plant injury at 1000 g/ha (Soybean [14]; 1.0 kg/ha) was 30% and the pest or weed control at 1000 g/ha (Johnsongrass [15]; 1.0 kg/ha) was 80%. For the same compound, the plant injury at 1000 g/ha (Soybean [16]; 1.0 kg/ha) was 50%, the plant injury at 1000 g/ha (Wheat [17]; 1.0 kg/ha) was 90% and the plant injury at 1000 g/ha (Field Corn [18]; 1.0 kg/ha) was 30%.
Work on `CCS(=O)(=O)N(c1cc(-n2nnn(CCCF)c2=O)ccc1Cl)S(=O)(=O)CC` [Compound 18, 1-[4-chloro-3-[bis(N--ethylsulfonyl)-amino]phenyl]-1,4-dihydro-4-(3-fluoropropyl)-5H--tetrazol-5-one] yielded a pest or weed control at 8000 g/ha (Green Foxtail [1]; 8.0 kg/ha) of 10%, a pest or weed control at 8000 g/ha (Green Foxtail [2]; 8.0 kg/ha) of 30% and a plant injury at 8000 g/ha (Wheat [3]; 8.0 kg/ha) of 10%. It also gave a pest or weed control at 8000 g/ha (Velvetleaf [4]; 8.0 kg/ha) of 95%, a pest or weed control at 8000 g/ha (Barnyardgrass [5]; 8.0 kg/ha) of 20% and a plant injury at 8000 g/ha (Field Corn [6]; 8.0 kg/ha) of 0%. The pest or weed control at 8000 g/ha (Morningglory [7]; 8.0 kg/ha) was 40%, the pest or weed control at 8000 g/ha (Field Bindweed [19]) was 30% and the pest or weed control at 8000 g/ha (Morningglory [8]; 8.0 kg/ha) was 70%. The pest or weed control at 8000 g/ha (Velvetleaf [9]; 8.0 kg/ha) was 95%, the pest or weed control at 8000 g/ha (Johnsongrass [10]; 8.0 kg/ha) was 30% and the pest or weed control at 8000 g/ha (Barnyardgrass [11]; 8.0 kg/ha) was 30%. For the same compound, the plant injury at 8000 g/ha (Cotton [12]; 8.0 kg/ha) was 100%, the plant injury at 8000 g/ha (Cotton [13]; 8.0 kg/ha) was 60% and the plant injury at 8000 g/ha (Soybean [14]; 8.0 kg/ha) was 60%. It also gave a pest or weed control at 8000 g/ha (Johnsongrass [15]; 8.0 kg/ha) of 40%, a plant injury at 8000 g/ha (Soybean [16]; 8.0 kg/ha) of 10% and a pest or weed control at 8000 g/ha (Field Bindweed [20]) of 50%. It also gave a plant injury at 8000 g/ha (Wheat [17]; 8.0 kg/ha) of 0% and a plant injury at 8000 g/ha (Field Corn [18]; 8.0 kg/ha) of 30%.
`CCS(=O)(=O)N(c1cc(-n2nnn(CCCF)c2=O)c(F)cc1Cl)S(=O)(=O)CC` [Compound 21, 1-[4-chloro-2-fluoro-5-[bis(N--ethylsulfonyl)amino]phenyl]-1,4-dihydro-4-(3-fluoropropyl)-5H--tetrazol-5-one] was tested, and the pest or weed control at 500 g/ha (Green Foxtail [1]; 0.5 kg/ha) was 100%, the plant injury at 500 g/ha (Rice) was 80% and the pest or weed control at 500 g/ha (Velvetleaf [4]; 0.5 kg/ha) was 100%. The pest or weed control at 500 g/ha (Barnyardgrass [5]; 0.5 kg/ha) was 100%, the plant injury at 500 g/ha (Field Corn [6]; 0.5 kg/ha) was 90% and the pest or weed control at 500 g/ha (Morningglory [7]; 0.5 kg/ha) was 95%. For the same compound, the plant injury at 500 g/ha (Cotton [12]; 0.5 kg/ha) was 95%, the pest or weed control at 500 g/ha (Johnsongrass [15]; 0.5 kg/ha) was 100% and the plant injury at 500 g/ha (Soybean [16]; 0.5 kg/ha) was 20%. The plant injury at 500 g/ha (Wheat [17]; 0.5 kg/ha) was 95%.
